# Results taken from patent US7807678B2, “Peptidomimetics of biologically active metallopeptides” (Palatin Technologies, Inc., priority 2001, dated 2010).
# Experiments:
# [1] = target: MC3-R (Homo sapiens, UniProt P41968); test: Competitive inhibition binding assay, 125I-NDP-α-MSH, MC3-R; parameters: expressed in transfected cells; settings: for Inhibition at 1 μM MC3-R: 1 μM compound, inhibition of 125I-NDP-α-MSH binding, mean of triplicates, results less than 0% reported as 0%
# Protocol: (§1) The competitive inhibition binding assay was conducted using membranes prepared from hMC3-R, hMC4-R, hMC5-R, and B-16 mouse melanoma cells (containing MC1-R) using 0.4 nM ^125I-NDP-α-MSH (New England Nuclear, Boston, Mass., USA) in 50 mM HEPES buffer containing 1 mM MgCl2, 2 mM CaCl2, and 5 mM KCl, at pH 7.2. The assay tube also contained a chosen concentration of the test peptidomimetic of this invention, generally 1 μM, for determining its efficacy in inhibiting the binding of ^125I-NDP-α-MSH to its receptor.
# (§2) Incubation was for 90 minutes at room temperature, after which the assay mixture was filtered and the membranes washed three times with ice cold buffer. The filter was dried and counted in a gamma counter for remaining radioactivity bound to the membranes. 100% specific binding was defined as the difference in radioactivity (cpm) bound to cell membranes in the absence and presence of 1 μM α-MSH. […] Each assay was conducted in triplicate and the actual mean values are described.
# [2] = target: T1, MC1-R (B-16 mouse melanoma cells) (Mus musculus, UniProt Q01727); test: Competitive inhibition binding assay, 125I-NDP-α-MSH, MC1-R; settings: for Inhibition at 1 μM MC1-R: 1 μM compound, inhibition of 125I-NDP-α-MSH binding, mean of triplicates, results less than 0% reported as 0%
# T1 construct: B-16 mouse melanoma cells (containing MC1-R); endogenous in cells; host or cells: B-16 mouse melanoma cells
# Protocol: as §1, §2
# [3] = target: MC5-R (Homo sapiens, UniProt P33032); test: Competitive inhibition binding assay, 125I-NDP-α-MSH, MC5-R; parameters: expressed in transfected cells; settings: for Inhibition at 1 μM MC5-R: 1 μM compound, inhibition of 125I-NDP-α-MSH binding, mean of triplicates, results less than 0% reported as 0%
# Protocol: as §1, §2
# [4] = target: MC4-R (Homo sapiens, UniProt P32245); test: Competitive inhibition binding assay, 125I-NDP-α-MSH, MC4-R; parameters: expressed in transfected cells; settings: for Inhibition at 1 μM MC4-R: 1 μM compound, inhibition of 125I-NDP-α-MSH binding, mean of triplicates, results less than 0% reported as 0%
# Protocol: as §1, §2
# Chain of MC4-R (P32245 whole entry): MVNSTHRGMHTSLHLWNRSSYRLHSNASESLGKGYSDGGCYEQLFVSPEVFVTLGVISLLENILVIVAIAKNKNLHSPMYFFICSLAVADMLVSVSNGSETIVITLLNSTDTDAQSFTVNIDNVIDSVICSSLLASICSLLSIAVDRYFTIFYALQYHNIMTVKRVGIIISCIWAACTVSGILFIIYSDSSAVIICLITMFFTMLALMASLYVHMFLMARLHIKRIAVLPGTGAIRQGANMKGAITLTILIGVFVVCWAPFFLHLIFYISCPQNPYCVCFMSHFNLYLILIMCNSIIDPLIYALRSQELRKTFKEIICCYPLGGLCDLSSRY
# T1 sequence (Q01727 whole entry): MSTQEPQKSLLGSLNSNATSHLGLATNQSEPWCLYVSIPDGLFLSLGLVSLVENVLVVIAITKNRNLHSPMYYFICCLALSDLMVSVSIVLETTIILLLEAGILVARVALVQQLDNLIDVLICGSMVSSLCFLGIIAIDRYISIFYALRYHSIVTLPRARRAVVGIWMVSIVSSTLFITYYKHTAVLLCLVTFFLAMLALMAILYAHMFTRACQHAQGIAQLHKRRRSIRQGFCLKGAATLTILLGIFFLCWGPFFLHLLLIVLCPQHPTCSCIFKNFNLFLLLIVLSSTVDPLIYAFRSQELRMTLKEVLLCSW
# Chain of MC3-R (P41968 whole entry): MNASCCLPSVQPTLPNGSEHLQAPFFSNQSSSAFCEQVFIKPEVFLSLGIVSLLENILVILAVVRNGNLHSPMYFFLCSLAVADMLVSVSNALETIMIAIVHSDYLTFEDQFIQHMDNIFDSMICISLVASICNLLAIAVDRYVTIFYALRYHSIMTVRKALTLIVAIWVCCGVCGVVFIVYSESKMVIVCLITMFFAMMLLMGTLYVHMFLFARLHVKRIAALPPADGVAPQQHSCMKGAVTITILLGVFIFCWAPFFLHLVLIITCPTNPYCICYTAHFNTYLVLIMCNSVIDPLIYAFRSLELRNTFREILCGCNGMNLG
# Chain of MC5-R (P33032 whole entry): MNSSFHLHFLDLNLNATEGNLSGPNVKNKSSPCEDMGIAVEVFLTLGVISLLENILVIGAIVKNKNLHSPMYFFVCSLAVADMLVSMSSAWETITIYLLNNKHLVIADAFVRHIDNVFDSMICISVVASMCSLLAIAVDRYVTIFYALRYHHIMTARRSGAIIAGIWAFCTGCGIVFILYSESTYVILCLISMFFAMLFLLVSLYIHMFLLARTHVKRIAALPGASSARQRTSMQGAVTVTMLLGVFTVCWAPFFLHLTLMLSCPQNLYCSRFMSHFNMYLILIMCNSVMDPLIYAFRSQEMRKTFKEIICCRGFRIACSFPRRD
SMILES,Inhibition at 1 μM MC3-R [1] [%],Inhibition at 1 μM MC1-R [2] [%],Inhibition at 1 μM MC5-R [3] [%],Inhibition at 1 μM MC4-R [4] [%],inhibition at 1 µM [1] [%],inhibition at 1 µM [2] [%],inhibition at 1 µM [3] [%],inhibition at 1 µM [4] [%]
N[C@H](Cc1ccc(Cl)cc1Cl)C(=O)N1CCN(CCc2ccc3ccccc3c2)C(=O)[C@@H]1CCCCNC(=O)c1cccnc1 [Example 60],6,4,13,23,–,–,–,–
N[C@H](Cc1ccc(Cl)cc1Cl)C(=O)N1CCN(CCc2ccc3ccccc3c2)C(=O)[C@@H]1CCCCNC(=O)c1ccc(O)cc1 [Example 61],6,3,26,12,–,–,–,–
N[C@H](Cc1ccc(Cl)cc1Cl)C(=O)N1CCN(CCc2ccc3ccccc3c2)C(=O)[C@@H]1CCCCNC(=O)CC1CCCCC1 [Example 62],4,0,2,6,–,–,–,–
N[C@H](Cc1ccc(Cl)cc1Cl)C(=O)N1CCN(CCc2ccc3ccccc3c2)C(=O)[C@@H]1CCCCNC=O [Example 64],0,8,6,30,–,–,–,–
CC(=O)NCCCC[C@H]1C(=O)N(CCc2ccc3ccccc3c2)CCN1C(=O)[C@H](N)Cc1ccc(Cl)cc1Cl [Example 65],3,17,0,26,–,–,–,–
NC(=O)NCCCC[C@H]1C(=O)N(CCc2ccc3ccccc3c2)CCN1C(=O)[C@H](N)Cc1ccc(Cl)cc1Cl [Example 66],15,43,14,49,–,–,–,–
N=C(N)NCCCC[C@H]1C(=O)N(CCc2ccc3ccccc3c2)CCN1C(=O)[C@H](N)Cc1ccc(Cl)cc1Cl [Example 67],68,66,42,96,–,–,–,–
N[C@H](Cc1ccc(Cl)cc1Cl)C(=O)N1CCN(CCc2ccc3ccccc3c2)C(=O)[C@@H]1CCCNc1ncccn1 [Example 68],9,3,19,12,–,–,–,–
N[C@H](Cc1ccc(Cl)cc1Cl)C(=O)N1CCN(CCc2ccc3ccccc3c2)C(=O)[C@@H]1CCCNc1cc[nH]n1 [Example 69],8,20,12,3,–,–,–,–
N[C@H](Cc1ccc(Cl)cc1Cl)C(=O)N1CCN(CCc2ccc3ccccc3c2)C(=O)[C@@H]1CCCNc1nncs1 [Example 70],31,28,32,70,–,–,–,–
N=C(N)NCCCC[C@H]1C(=O)N(CCc2ccc3ccccc3c2)CCN1C(=O)[C@H](N)Cc1ccc2ccccc2c1 [Example 71],73,60,57,97,–,–,–,–
CNC(=N)NCCC[C@H]1C(=O)N(CCc2ccc3ccccc3c2)CCN1C(=O)[C@H](N)Cc1ccc(Cl)cc1Cl [Example 72],43,19,27,93,–,–,–,–
CCNC(=N)NCCC[C@H]1C(=O)N(CCc2ccc3ccccc3c2)CCN1C(=O)[C@H](N)Cc1ccc(Cl)cc1Cl [Example 73],35,14,24,91,–,–,–,–
CCCNC(=N)NCCCC1C(=O)N(CCc2ccc3ccccc3c2)CCN1C(=O)C(N)Cc1ccc(Cl)cc1Cl (centres unmarked) [Example 74],34,13,26,88,–,–,–,–
CC(C)NC(=N)NCCCC1C(=O)N(CCc2ccc3ccccc3c2)CCN1C(=O)C(N)Cc1ccc(Cl)cc1Cl (centres unmarked) [Example 75],40,37,28,85,–,–,–,–
N=C(N)NCCC[C@H]1C(=O)N(CCc2ccc3ccccc3c2)CCN1C(=O)COc1ccc(Cl)cc1Cl [Example 77],–,–,–,–,0,15,20,24
CCCCCCC(=O)N[C@@H](COCc1ccccc1)C(=O)N[C@H](Cc1ccc(Cl)cc1)C(=O)N1CCN(CCc2c[nH]c3ccccc23)C(=O)[C@@H]1CCCCN [Example 78],72,96,99,99,–,–,–,–
NCCCC[C@H]1C(=O)N2C(CC[C@@H]2COc2ccc3ccccc3c2)N1C(=O)[C@@H](Cc1ccc(Cl)cc1)NC(=O)[C@@H](N)COCc1ccccc1 (some centres unmarked) [Example 79],14,90,86,81,–,–,–,–
NCCCC[C@H]1C(=O)N2C(CC[C@@H]2COc2ccc3ccccc3c2)N1C(=O)[C@@H](Cc1ccccc1Cl)NC(=O)[C@@H](N)COCc1ccccc1 (some centres unmarked) [Example 82],0,28,38,60,–,–,–,–
NCCCC[C@H]1C(=O)N2C(CC[C@@H]2COc2ccc3ccccc3c2)N1C(=O)[C@@H](Cc1ccccc1Cl)NC(=O)[C@@H]1Cc2ccccc2CN1 (some centres unmarked) [Example 83],2,42,38,89,–,–,–,–
NCCCC[C@H]1C(=O)N2C(CC[C@@H]2COc2ccc3ccccc3c2)N1C(=O)[C@@H](Cc1ccccc1Cl)NC(=O)[C@@H]1C[C@@H](OCc2ccccc2)CN1 (some centres unmarked) [Example 84],0,44,37,74,–,–,–,–
NCCCC[C@H]1C(=O)N2C(CC[C@@H]2COc2ccc3ccccc3c2)N1C(=O)[C@@H](Cc1ccccc1Cl)NC(=O)[C@@H]1CC[C@H](c2ccccc2)N1 (some centres unmarked) [Example 85],0,4,13,44,–,–,–,–
CCCCCCC(=O)N[C@@H](COCc1ccccc1)C(=O)N[C@H](Cc1ccccc1Cl)C(=O)N1C2CC[C@H](COc3ccc4ccccc4c3)N2C(=O)[C@@H]1CCCCN (some centres unmarked) [Example 86],30,71,47,82,–,–,–,–
NCCCC[C@H]1C(=O)N2C(CC[C@@H]2COc2ccc3ccccc3c2)N1C(=O)[C@@H](Cc1ccccc1Cl)NC(=O)[C@H]1NCCc2ccccc21 (some centres unmarked) [Example 87],8,66,46,57,–,–,–,–
NCCCC[C@H]1C(=O)N2C(CC[C@@H]2COc2ccc3ccccc3c2)N1C(=O)[C@@H](Cc1ccccc1Cl)NC(=O)[C@@H]1NCCc2ccccc21 (some centres unmarked) [Example 88],0,48,20,37,–,–,–,–
NCCCC[C@H]1C(=O)N2C(CC[C@@H]2COc2ccc3ccccc3c2)N1C(=O)[C@@H](Cc1ccccc1Cl)NC(=O)C1(N)CCc2ccccc2C1 (some centres unmarked) [Example 89],0,24,22,34,–,–,–,–
